Assay results published in ChEMBL document CHEMBL1795278, “Synthesis and evaluation of fluorescent heterocyclic aminoadamantanes as multifunctional neuroprotective agents” (Bioorg Med Chem, 2011).

Columns and labels:
[1] = Antagonist activity at VGCC in Sprague-Dawley rat brain synaptoneurosomes assessed as inhibition of Kcl-induced calcium flux at 100 uM after 5 mins using FURA-2AM by fluorescent spectrometer analysis relative to control; format: functional
[2] = Antagonist activity at NMDAR in Sprague-Dawley rat brain synaptoneurosomes assessed as inhibition of NMDA/glycine-induced calcium flux at 100 uM after 5 mins using FURA-2AM by fluorescent spectrometer analysis relative to control; format: functional
[3] = system: Radical scavenging activity; assay: Antioxidant activity assessed as inhibition of DPPH free radicals at 0.01 mM after 30 mins by UV-visible spectrophotometer analysis relative to control; format: functional
[4] = system: Radical scavenging activity; assay: Antioxidant activity assessed as inhibition of DPPH free radicals at 0.1 mM after 30 mins by UV-visible spectrophotometer analysis relative to control; format: functional
[5] = system: Radical scavenging activity; assay: Antioxidant activity assessed as inhibition of DPPH free radicals at 1 mM after 30 mins by UV-visible spectrophotometer analysis relative to control; format: functional
[6] = Antioxidant activity assessed as inhibition of ABTS free radicals at 0.01 mM after 30 mins by UV-visible spectrophotometer analysis relative to control; format: functional
[7] = Antioxidant activity assessed as inhibition of ABTS free radicals at 0.1 mM after 30 mins by UV-visible spectrophotometer analysis relative to control; format: functional
[8] = Antioxidant activity assessed as inhibition of ABTS free radicals at 1 mM after 30 mins by UV-visible spectrophotometer analysis relative to control; format: functional
[9] = system: Radical scavenging activity; assay: Antioxidant activity assessed as inhibition of DPPH free radicals after 30 mins by UV-visible spectrophotometer analysis relative to control; format: functional
[10] = Antioxidant activity assessed as inhibition of ABTS free radicals after 30 mins by UV-visible spectrophotometer analysis relative to control; format: functional
Nitric oxide synthase 1 = Nitric oxide synthase 1 (Rattus norvegicus, UniProt P29476); assay: Inhibition of nNOS in Sprague-Dawley rat brain homogenates assessed as conversion of oxyhemoglobin to methemoglobin measured for 10 mins by UV-visible spectrophotometer analysis
Chain of Nitric oxide synthase 1 (P29476 whole entry): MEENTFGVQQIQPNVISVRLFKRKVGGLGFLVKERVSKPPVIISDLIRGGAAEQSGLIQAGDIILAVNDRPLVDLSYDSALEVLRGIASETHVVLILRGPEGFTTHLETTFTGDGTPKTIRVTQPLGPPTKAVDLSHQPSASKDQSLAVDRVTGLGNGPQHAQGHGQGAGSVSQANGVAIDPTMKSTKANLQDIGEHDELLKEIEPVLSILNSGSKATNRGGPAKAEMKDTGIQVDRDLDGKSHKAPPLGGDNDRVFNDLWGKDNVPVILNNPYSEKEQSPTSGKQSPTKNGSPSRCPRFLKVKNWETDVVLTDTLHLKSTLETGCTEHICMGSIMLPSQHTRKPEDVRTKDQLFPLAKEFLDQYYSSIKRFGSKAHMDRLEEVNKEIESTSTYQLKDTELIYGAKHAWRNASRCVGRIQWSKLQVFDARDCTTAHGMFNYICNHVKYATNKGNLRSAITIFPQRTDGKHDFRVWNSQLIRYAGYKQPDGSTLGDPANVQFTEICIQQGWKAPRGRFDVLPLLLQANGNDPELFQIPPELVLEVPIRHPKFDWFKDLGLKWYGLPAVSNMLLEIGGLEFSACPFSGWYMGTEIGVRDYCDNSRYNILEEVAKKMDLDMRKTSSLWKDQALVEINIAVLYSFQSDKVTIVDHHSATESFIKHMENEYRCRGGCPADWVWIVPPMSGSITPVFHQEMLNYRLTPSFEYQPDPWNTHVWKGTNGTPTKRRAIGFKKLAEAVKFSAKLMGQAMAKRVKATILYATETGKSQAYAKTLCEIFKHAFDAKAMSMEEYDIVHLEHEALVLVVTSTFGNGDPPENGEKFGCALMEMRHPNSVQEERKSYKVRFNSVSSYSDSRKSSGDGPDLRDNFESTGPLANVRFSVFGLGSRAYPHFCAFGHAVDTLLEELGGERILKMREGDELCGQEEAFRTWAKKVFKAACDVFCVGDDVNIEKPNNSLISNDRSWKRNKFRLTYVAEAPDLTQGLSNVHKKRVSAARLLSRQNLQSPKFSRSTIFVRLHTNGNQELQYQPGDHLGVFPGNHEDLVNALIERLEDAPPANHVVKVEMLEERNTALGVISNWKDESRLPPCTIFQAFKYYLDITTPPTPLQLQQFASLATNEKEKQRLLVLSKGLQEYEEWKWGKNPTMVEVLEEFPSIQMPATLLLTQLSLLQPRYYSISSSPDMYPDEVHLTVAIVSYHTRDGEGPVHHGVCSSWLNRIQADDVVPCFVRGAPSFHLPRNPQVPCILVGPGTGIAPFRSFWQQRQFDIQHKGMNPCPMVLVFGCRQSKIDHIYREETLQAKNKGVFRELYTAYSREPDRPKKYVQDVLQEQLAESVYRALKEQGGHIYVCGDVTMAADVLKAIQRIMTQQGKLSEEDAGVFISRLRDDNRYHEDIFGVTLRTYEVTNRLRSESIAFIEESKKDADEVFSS

Q: Which “inhibition (INH)” value [1] does the source give for CNc1ccccc1C(=O)NC12CC3CC(CC(C3)C1)C2 here?
A: The value was 93.2%.

Q: What about the “inhibition (INH)” value [2] of the same compound?
A: Its value is 96.66%.

Q: And the inhibition [3]?
A: Its inhibition is 42.7%.

Q: And the inhibition [4]?
A: Its inhibition is 42.8%.

Q: What about the inhibition [5] of the same compound?
A: Its inhibition is 44%.

Q: What about the inhibition [6] of the same compound?
A: Its inhibition is 10.7%.

Q: And the inhibition [7]?
A: Its inhibition is 24.3%.

Q: What about the inhibition [8] of the same compound?
A: Its inhibition is 50.5%.

Q: And the inhibition [9]?
A: The inhibition was “Dose-dependent effect”.

Q: And the inhibition [10]?
A: The inhibition was “Dose-dependent effect”.

Q: What does the source list for N#Cc1c2ccccc2cn1C12CC3CC(CC(C3)C1)C2?
A: inhibition (INH) [1]: 54.24%; inhibition (INH) [2]: 84.01%; inhibition [3]: 27.4%; inhibition [4]: 27.8%; inhibition [5]: 32.7%; inhibition [6]: 9.98%; inhibition [7]: 13.2%; inhibition [8]: 13.5%; inhibition [9]: Dose-dependent effect; inhibition [10]: Dose-dependent effect

Q: With O=[N+]([O-])c1ccc(NC23CC4CC(CC(C4)C2)C3)c([N+](=O)[O-])c1 as the compound, how does the “inhibition (INH)” value [1] read?
A: Its value is 89.14%.

Q: What about the “inhibition (INH)” value [2] of the same compound?
A: The value was 80.75%.

Q: And the IC50 (Nitric oxide synthase 1)?
A: The IC50 was “Not Active”.

Q: And the inhibition [3]?
A: Its inhibition is 32.1%.

Q: And the inhibition [4]?
A: Its inhibition is 36.8%.

Q: And the inhibition [5]?
A: The inhibition was 37%.

Q: And the inhibition [6]?
A: The inhibition was 8.21%.

Q: What about the inhibition [7] of the same compound?
A: The inhibition was 9.73%.

Q: And the inhibition [8]?
A: Its inhibition is 15.7%.

Q: And the inhibition [9]?
A: Its inhibition is “Dose-dependent effect”.

Q: What about the inhibition [10] of the same compound?
A: Its inhibition is “Dose-dependent effect”.

Q: For O=C(NC12CC3CC(CC(C3)C1)C2)c1n[nH]c2ccccc12, which “inhibition (INH)” value [1] is on record?
A: The value was 93.43%.

Q: And the “inhibition (INH)” value [2]?
A: The value was 83%.

Q: What about the inhibition [3] of the same compound?
A: The inhibition was 28.7%.

Q: What about the inhibition [4] of the same compound?
A: Its inhibition is 30.1%.

Q: What about the inhibition [5] of the same compound?
A: The inhibition was 32.9%.

Q: What about the inhibition [6] of the same compound?
A: The inhibition was 12.4%.

Q: And the inhibition [7]?
A: Its inhibition is 21.7%.

Q: And the inhibition [8]?
A: The inhibition was 39.9%.

Q: And the inhibition [9]?
A: The inhibition was “Dose-dependent effect”.

Q: What about the inhibition [10] of the same compound?
A: The inhibition was “Dose-dependent effect”.

Q: With N=C(N)NN [PIMAGEDINE] as the compound, how does the IC50 (Nitric oxide synthase 1; read-out: IC50) read?
A: The IC50 was 19400 nM.

Q: For CN(C)c1cccc2c(S(=O)(=O)NC34CC5CC(CC(C5)C3)C4)cccc12, which “inhibition (INH)” value [1] is on record?
A: Its value is 44.77%.

Q: And the “inhibition (INH)” value [2]?
A: The value was 78.05%.

Q: And the IC50 (Nitric oxide synthase 1; read-out: IC50)?
A: The IC50 was 410 nM.

Q: What about the inhibition [3] of the same compound?
A: Its inhibition is 38%.

Q: And the inhibition [4]?
A: Its inhibition is 38.1%.

Q: What about the inhibition [5] of the same compound?
A: The inhibition was 40.9%.

Q: What about the inhibition [6] of the same compound?
A: Its inhibition is 8.11%.

Q: What about the inhibition [7] of the same compound?
A: The inhibition was 22.4%.

Q: What about the inhibition [8] of the same compound?
A: Its inhibition is 41.6%.

Q: What about the inhibition [9] of the same compound?
A: The inhibition was “Dose-dependent effect”.

Q: What about the inhibition [10] of the same compound?
A: The inhibition was “Dose-dependent effect”.

Q: Which “inhibition (INH)” value [1] does the source give for c1ccc(CNC23OC4C5C6CC(C7C6C4C72)C53)cc1 (stereo not given) here?
A: The value was 70.12%.

Q: And the “inhibition (INH)” value [2]?
A: Its value is 86.63%.

Q: And the IC50 (Nitric oxide synthase 1)?
A: The IC50 was “Not Active”.

Q: What about the inhibition [3] of the same compound?
A: The inhibition was 0.2%.

Q: What about the inhibition [4] of the same compound?
A: Its inhibition is 5.99%.

Q: And the inhibition [5]?
A: Its inhibition is 9.98%.

Q: And the inhibition [6]?
A: The inhibition was 2.44%.

Q: What about the inhibition [7] of the same compound?
A: The inhibition was 7.33%.

Q: And the inhibition [8]?
A: Its inhibition is 8.88%.

Q: And the inhibition [9]?
A: Its inhibition is “Dose-dependent effect”.

Q: And the inhibition [10]?
A: Its inhibition is “Dose-dependent effect”.

Q: Which results are given for NC12CC3CC(CC(C3)C1)C2 [AMANTADINE]?
A: inhibition (INH) [1]: 86.13%; inhibition (INH) [2]: 83.1%; IC50 (Nitric oxide synthase 1): Not Active; inhibition [3]: 0.55%; inhibition [4]: 2.11%; inhibition [5]: 2.32%; inhibition [6]: 0.49%; inhibition [7]: 1.34%; inhibition [8]: 1.62%; inhibition [9]: Dose-dependent effect; inhibition [10]: Dose-dependent effect

Q: Which inhibition [3] does the source give for Cc1c(C)c2c(c(C)c1O)CCC(C)(C(=O)O)O2 (stereo not given) here?
A: The inhibition was 45.8%.

Q: What about the inhibition [4] of the same compound?
A: Its inhibition is 74.6%.

Q: What about the inhibition [5] of the same compound?
A: Its inhibition is 95.1%.

Q: And the inhibition [6]?
A: The inhibition was 47.6%.

Q: What about the inhibition [7] of the same compound?
A: The inhibition was 62.8%.

Q: What about the inhibition [8] of the same compound?
A: The inhibition was 88.5%.

Q: What about the inhibition [9] of the same compound?
A: Its inhibition is “Dose-dependent effect”.

Q: What about the inhibition [10] of the same compound?
A: Its inhibition is “Dose-dependent effect”.

Q: With O=C(NC12CC3CC(CC(C3)C1)C2)c1cc2ccccc2oc1=O as the compound, how does the “inhibition (INH)” value [1] read?
A: The value was 75.35%.

Q: And the “inhibition (INH)” value [2]?
A: The value was 79.71%.

Q: What about the IC50 (Nitric oxide synthase 1; read-out: IC50) of the same compound?
A: Its IC50 is 850 nM.

Q: What about the inhibition [3] of the same compound?
A: The inhibition was 31.8%.

Q: And the inhibition [4]?
A: The inhibition was 69.8%.

Q: And the inhibition [5]?
A: Its inhibition is 91.7%.

Q: And the inhibition [6]?
A: The inhibition was 87.5%.

Q: What about the inhibition [7] of the same compound?
A: The inhibition was 91.8%.

Q: What about the inhibition [8] of the same compound?
A: The inhibition was 93.3%.

Q: And the inhibition [9]?
A: The inhibition was “Dose-dependent effect”.

Q: And the inhibition [10]?
A: Its inhibition is “Dose-dependent effect”.

Q: Which “inhibition (INH)” value [1] does the source give for COCCOC(=O)C1=C(C)NC(C)=C(C(=O)OC(C)C)C1c1cccc([N+](=O)[O-])c1 (stereo not given) [NIMODIPINE] here?
A: Its value is 12.29%.
